Test results from patent US20230114728A1 (Venatorx Pharmaceuticals, Inc., priority 2019, published 2023).
In brackets after ≈: the same amount, converted by molar mass.

Tests used:
[1] = target: T1, P. aeruginosa PBP3 (Pseudomonas aeruginosa, UniProt G3XD46); test: Bocillin-FL fluorescence polarization competition binding assay, P. aeruginosa PBP3; details: fluorescence polarization competition binding assay using Bocillin-FL
T1 construct: made in house
Excerpt: (§1) Example I: Experimental Method for Penicillin-Binding Protein Binding Assays with Bocillin-FL Via Fluorescence Polarization
(§2) To determine the ability of boronic acid-based test PBP inhibitors to bind Penicillin Binding Proteins (PBPs), Bocillin-FL (fluorescently-labeled penicillin V; ThermoFisher Scientific) was used in a fluorescence polarization (FP) competition binding assay to assess inhibitor binding to PBP2, PBP3 or PBP4 from Escherichia coli (K12), PBP3 from Pseudomonas aeruginosa (PA01), PBP1a, PBP2 and PBP3 from Acinetobacter baumannii (ATCC 19606), and PBP2 from Neiserria gonorrheae (FA19). PBPs were cloned and purified as described previously (E. coli PBPs, King, D. T, et al., ACS Infectious Diseases 2015, 1, 175-184; P. aeruginosa PBP3, Han et. al., PNAS 2010, 107 (51), 22002-22007; A. baumannii PBPs, Penwell et. al., Antimicrob. Agents Chemother. 2015, 59 (3), 1680-1689; N. gonorrhoeae PBP2, Singh et. al., J Biol. Chem. 2019, 294 (38), 14020-14032). To establish assay conditions for competition binding, enzyme titration/saturation binding experiments were initially performed. Bocillin-FL was prepared at 0.2 μM in a buffer comprised of 50 mM Hepes (pH 8.0), 300 mM NaCl and 5% (v/v) glycerol for reactions with E. coli, P. aeruginosa and N. gonorrhoeae PBPs, and 25 mM Tris (pH 8.0), 200 mM NaCl and 10% (v/v) glycerol and 0.005% (v/v) Tween 20 for reactions with A. baumannii PBPs. Saturation binding was performed by mixing 40 μl of PBP solutions ranging in concentrations from 0-24 μM with 40 μl of the 0.2 μM Bocillin-FL solution, in individual wells of a black 384-well microplate. FP was measured immediately upon mixing (Excitation, 490 nm; Emission, 520 nm; g-factor, 0.96), using a Cytation3 (BioTek) microplate reader and measured continuously for up to 120 minutes. […] The competition binding assay (80 μl final volume) was validated using beta-lactams and PBPs at final concentrations of: 1.5 μM, E. coli PBP3; 0.75 μM, P. aeruginosa PBP3; 1 μM A. baumannii PBP1a; 2.5 μM A. baumannii PBP2; 0.2 μM A. baumannii PBP3; and […] N. gonorrhoeae PBP2. Bocillin-FL was at 0.1 μM (0.05 μM with A. baumannii PBP1a) and beta-lactam concentrations ranged from 0-1000 μM. […] Bocillin-FL was added and the FP immediately measured for up to 60 minutes (90 minutes for E. coli PBP2). […] The beta-lactam potency was reported as the concentration of beta-lactam required to reduce the amount of PBP bound-Bocillin-FL by 50% (EC50). […] Binding assays for boronic acid PBP inhibitors were performed in an identical fashion for the respective PBPs

[2] = system: A. baumannii ATCC 19606; test: Broth microdilution MIC in CAMHB; format: cell-based; details: Acinetobacter baumannii, ATCC19606; MHB; read-out: Minimum Inhibitory Concentration, A. baumannii ATCC 19606
Protocol: (§3) Example III: In Vitro Antibacterial Assays
(§4) To determine the ability of test compounds to inhibit the growth of bacterial strains, classic cell based broth microdilution minimum inhibitory concentration (MIC) assays were employed. MIC assays are performed according to CLSI methods except where otherwise noted (CLSI, 2018 and CLSI, 2019). The reference type strain E. coli ATCC 25922; the wild-type parent strain E. coli AG100; the hyper-permeable E. coli 901C and E. coli D22; and the E. coli AG100A strain lacking the acrAB efflux pump encoding genes were used to determine the ability of the PBP inhibitors to penetrate the outer membrane of gram-negative bacteria and inhibit bacterial growth. […] The P. aeruginosa ATCC 27853 and A. baumannii ATCC 19606, along with the hyper-permeable P. aeruginosa ATCC 35151 and an engineered efflux pump-compromised strain of P. aeruginosa (ΔmexAB-oprM) were used to determine the ability of PBP inhibitors to penetrate the outer membrane of P. aeruginosa and A. baumannii and assess antibacterial activity against these important gram-negative organisms.
(§5) Briefly, cryo-preserved bacterial cultures of challenge strains are streaked for isolation on appropriate agar medium, in this case cation-adjusted Mueller Hinton agar. Following incubation to allow growth of the colonies, plates are sealed with parafilm and stored refrigerated for up to two weeks. For preparation of assay inoculum and to ensure low variability, at least 5 colonies are picked from the agar plates with an inoculating loop and aseptically transferred to a culture tube containing 3 mL of cation-adjusted Mueller Hinton broth (CAMHB). The broth culture is grown for 3-5 hours at 37° C. with shaking at 200 rpm. Meanwhile, 2-fold serial dilutions of test compounds are conducted in a 96-well plate with a final volume of 75 μL per well at 2-fold the final desired concentration. After the dilution plates are set up the growing cultures are then diluted in a cuvette containing CAMHB and the optical density is measured at 600 nm. The inoculum is diluted such that 75 μL of this culture in CAMHB results in a starting bacterial concentration of 2-8×10^5 CFU/mL when added to the dilution plates. The plates are incubated for 16-20 hours for Enterobacteriaceae and Pseudomonas and 20-24 hours for Acinetobacter at 37° C. The MIC values are read visually as the lowest concentration well with no bacterial growth.

[3] = system: E. coli 901C; test: Broth microdilution MIC in CAMHB; format: cell-based; details: Escherichia coli; MHB; hyper-permeable E. coli 901C; read-out: Minimum Inhibitory Concentration, E. coli 901C
Protocol: as §3, §4, §5

[4] = system: E. coli AG100A; test: Broth microdilution MIC in CAMHB; format: cell-based; details: Escherichia coli, read-out: Minimum Inhibitory Concentration, E. coli AG100A
Protocol: as §3, §4, §5

[5] = system: E. coli AG100; test: Broth microdilution MIC in CAMHB; format: cell-based; details: Escherichia coli; MHB; wild-type parent strain E. coli AG100; read-out: Minimum Inhibitory Concentration, E. coli AG100
Protocol: as §3, §4, §5

[6] = system: E. coli ATCC 25922; test: Broth microdilution MIC in CAMHB; format: cell-based; details: Escherichia coli, ATCC25922; MHB; E. coli ATCC 25922; read-out: Minimum Inhibitory Concentration, E. coli 25922
Protocol: as §3, §4, §5

[7] = system: E. coli D22; test: Broth microdilution MIC in CAMHB; format: cell-based; details: Escherichia coli; MHB; hyper-permeable E. coli D22; read-out: Minimum Inhibitory Concentration, E. coli D22
Protocol: as §3, §4, §5

[8] = system: K. pneumoniae 848844 producing SHV-11 and KPC-2; test: Broth microdilution MIC in CAMHB; format: cell-based; details: Klebsiella pneumoniae, read-out: Minimum Inhibitory Concentration, K. pneumoniae 848844
Protocol: as §3, §4, §5

[9] = system: K. pneumoniae SI-117 producing VIM-1; test: Broth microdilution MIC in CAMHB; format: cell-based; details: Klebsiella pneumoniae, read-out: Minimum Inhibitory Concentration, K. pneumoniae SI-117
Protocol: as §3, §4, §5

[10] = system: K. pneumoniae UMM producing SHV-5 and KPC-2; test: Broth microdilution MIC in CAMHB; format: cell-based; details: Klebsiella pneumoniae, read-out: Minimum Inhibitory Concentration, K. pneumoniae UMM
Protocol: as §3, §4, §5

[11] = system: P. aeruginosa (ΔmexAB-oprM); test: Broth microdilution MIC in CAMHB; format: cell-based; details: Pseudomonas aeruginosa, read-out: Minimum Inhibitory Concentration, P. aeruginosa ΔmexAB-OprM
Protocol: as §3, §4, §5

[12] = system: P. aeruginosa ATCC 27853; test: Broth microdilution MIC in CAMHB; format: cell-based; details: Pseudomonas aeruginosa, ATCC27853; MHB; read-out: Minimum Inhibitory Concentration, P. aeruginosa ATCC 27853
Protocol: as §3, §4, §5

[13] = system: P. aeruginosa ATCC 35151; test: Broth microdilution MIC in CAMHB; format: cell-based; details: Pseudomonas aeruginosa, ATCC35151; MHB; hyper-permeable strain; read-out: Minimum Inhibitory Concentration, P. aeruginosa ATCC 35151
Protocol: as §3, §4, §5

[14] = target: T2, E. coli K12 PBP3 (Escherichia coli, UniProt P0AD68); test: biochemical; format: binding
T2 construct: made in house
Excerpt: as §1, §2

T1 sequence (G3XD46 whole entry): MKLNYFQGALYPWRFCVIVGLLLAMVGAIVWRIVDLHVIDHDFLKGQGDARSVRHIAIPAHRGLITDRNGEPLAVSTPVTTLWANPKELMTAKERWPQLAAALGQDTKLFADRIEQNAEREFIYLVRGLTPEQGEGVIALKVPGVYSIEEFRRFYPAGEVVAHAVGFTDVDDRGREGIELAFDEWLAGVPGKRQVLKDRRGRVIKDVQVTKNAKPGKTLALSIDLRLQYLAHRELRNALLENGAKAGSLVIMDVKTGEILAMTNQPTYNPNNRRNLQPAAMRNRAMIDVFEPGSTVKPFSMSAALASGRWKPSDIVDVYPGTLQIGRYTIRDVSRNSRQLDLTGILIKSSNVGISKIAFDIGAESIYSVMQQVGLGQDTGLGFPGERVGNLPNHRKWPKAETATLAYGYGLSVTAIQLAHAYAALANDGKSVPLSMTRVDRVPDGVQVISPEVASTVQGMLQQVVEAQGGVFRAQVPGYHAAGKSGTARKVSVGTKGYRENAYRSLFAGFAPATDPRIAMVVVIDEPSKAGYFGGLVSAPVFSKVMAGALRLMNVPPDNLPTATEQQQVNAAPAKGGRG
T2 sequence (P0AD68 1-577): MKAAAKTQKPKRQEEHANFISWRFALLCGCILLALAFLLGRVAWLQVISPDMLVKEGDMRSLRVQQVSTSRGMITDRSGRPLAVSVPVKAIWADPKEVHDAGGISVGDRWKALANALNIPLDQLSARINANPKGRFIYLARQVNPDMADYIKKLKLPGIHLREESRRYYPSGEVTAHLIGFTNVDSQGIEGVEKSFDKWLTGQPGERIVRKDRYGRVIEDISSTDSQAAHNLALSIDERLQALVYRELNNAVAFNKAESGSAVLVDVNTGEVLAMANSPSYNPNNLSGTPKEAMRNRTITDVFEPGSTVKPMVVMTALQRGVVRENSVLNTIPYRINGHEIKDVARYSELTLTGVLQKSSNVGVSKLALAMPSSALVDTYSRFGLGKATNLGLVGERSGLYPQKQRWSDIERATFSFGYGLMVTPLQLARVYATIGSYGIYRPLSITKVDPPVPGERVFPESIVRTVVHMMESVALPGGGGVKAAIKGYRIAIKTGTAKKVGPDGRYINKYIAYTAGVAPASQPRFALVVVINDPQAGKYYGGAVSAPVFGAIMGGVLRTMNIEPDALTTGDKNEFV

SMILES	P. aeruginosa PBP3 Potency [1]	MIC [2]	MIC [3]	MIC [4]	MIC [5]	MIC [6]	MIC [7]	MIC [8]	MIC [9]	MIC [10]	MIC [11]	MIC [12]	MIC [13]	EC50 [14]
NCCCN1CCN(C(=O)N[C@@H](C(=O)N[C@H]2Cc3cccc(C(=O)O)c3OB2O)c2ccc(O)c(F)c2F)C(=O)C1=O (single isomer, unassigned) [Example 238]	D (D represents a potency <10 μM)	> 128 µg/mL	32 to 64 µg/mL (≈ 54.3 to 109 µM)	32 to 64 µg/mL (≈ 54.3 to 109 µM)	32 to 64 µg/mL (≈ 54.3 to 109 µM)	2 to 4 µg/mL (≈ 3.39 to 6.79 µM)	8 to 16 µg/mL (≈ 13.6 to 27.2 µM)	8 to 16 µg/mL (≈ 13.6 to 27.2 µM)	0.5 to 1 µg/mL (≈ 0.848 to 1.7 µM)	< 0.25 µg/mL	2 to 4 µg/mL (≈ 3.39 to 6.79 µM)	32 to 64 µg/mL (≈ 54.3 to 109 µM)	< 0.25 µg/mL	
CCN1CCN(C(=O)N[C@@H](C(=O)N[C@H]2Cc3cccc(C(=O)O)c3OB2O)c2ccc(C(=O)O)c(Cl)c2F)C(=O)C1=O (single isomer, unassigned) [Example 222]	D (D represents a potency <10 μM)	> 128 µg/mL	> 128 µg/mL	> 128 µg/mL	> 128 µg/mL	32 to 64 µg/mL (≈ 52.9 to 106 µM)	> 128 µg/mL	> 128 µg/mL	2 to 4 µg/mL (≈ 3.31 to 6.61 µM)	< 0.25 µg/mL	32 to 64 µg/mL (≈ 52.9 to 106 µM)	> 128 µg/mL	0.5 to 1 µg/mL (≈ 0.827 to 1.65 µM)	
CCN1C[C@H](C)N(C(=O)N[C@@H](C(=O)N[C@H]2Cc3cccc(C(=O)O)c3OB2O)c2ccc(O)c(F)c2F)C(=O)C1=O [Example 240, (3R)-3-(2-(2,3-difluoro-4-hydroxyphenyl)-2-((S)-4-ethyl-6-methyl-2,3-dioxopiperazine-1-carboxamido)acetamido)-2-hydroxy-3,4-dihydro-2H-benzo[e][1,2]oxaborinine-8-carboxylic acid]	D (D represents a potency <10 μM)	> 128 µg/mL	> 128 µg/mL	32 to 64 µg/mL (≈ 55.7 to 111 µM)	> 128 µg/mL	32 to 64 µg/mL (≈ 55.7 to 111 µM)	32 to 64 µg/mL (≈ 55.7 to 111 µM)	32 to 64 µg/mL (≈ 55.7 to 111 µM)	2 to 4 µg/mL (≈ 3.48 to 6.96 µM)	< 0.25 µg/mL	8 to 16 µg/mL (≈ 13.9 to 27.9 µM)	> 128 µg/mL	2 to 4 µg/mL (≈ 3.48 to 6.96 µM)	
NCCN1CCN(C(=O)N[C@@H](C(=O)N[C@H]2Cc3cccc(C(=O)O)c3OB2O)c2c(Cl)cccc2Cl)C(=O)C1=O (single isomer, unassigned) [Example 224]	B (B represents a potency between 30 μM and 500 μM inclusive)	> 128 µg/mL	> 128 µg/mL	> 128 µg/mL	> 128 µg/mL	> 128 µg/mL	> 128 µg/mL	> 128 µg/mL	> 128 µg/mL	8 to 16 µg/mL (≈ 13.5 to 27 µM)	> 128 µg/mL	> 128 µg/mL	32 to 64 µg/mL (≈ 54 to 108 µM)	
NCCCN1CCN(C(=O)N[C@H](C(=O)N[C@H]2Cc3cccc(C(=O)O)c3OB2O)c2ccc(O)c(F)c2F)C(=O)C1=O (single isomer, unassigned) [Example 239]	C (C represents a potency between 10 and 30 μM)	> 128 µg/mL	> 128 µg/mL	> 128 µg/mL	> 128 µg/mL	> 128 µg/mL	> 128 µg/mL	> 128 µg/mL	8 to 16 µg/mL (≈ 13.6 to 27.2 µM)	2 to 4 µg/mL (≈ 3.39 to 6.79 µM)	8 to 16 µg/mL (≈ 13.6 to 27.2 µM)	> 128 µg/mL	2 to 4 µg/mL (≈ 3.39 to 6.79 µM)	
NC1(CN2CCN(C(=O)N[C@@H](C(=O)N[C@H]3Cc4cccc(C(=O)O)c4OB3O)c3ccc(O)c(F)c3F)C(=O)C2=O)CC1 (single isomer, unassigned) [Example 236]		> 128 µg/mL	32 to 64 µg/mL (≈ 53.2 to 106 µM)	32 to 64 µg/mL (≈ 53.2 to 106 µM)	32 to 64 µg/mL (≈ 53.2 to 106 µM)	32 to 64 µg/mL (≈ 53.2 to 106 µM)	32 to 64 µg/mL (≈ 53.2 to 106 µM)	32 to 64 µg/mL (≈ 53.2 to 106 µM)	2 to 4 µg/mL (≈ 3.33 to 6.65 µM)	0.5 to 1 µg/mL (≈ 0.831 to 1.66 µM)	2 to 4 µg/mL (≈ 3.33 to 6.65 µM)	> 128 µg/mL	< 0.25 µg/mL	< 30 µM
NCCN1CCCN(C(=O)N[C@H](C(=O)N[C@H]2Cc3cccc(C(=O)O)c3OB2O)c2c(F)cc(O)cc2F)C1=O (single isomer, unassigned) [Example 231]		> 128 µg/mL	> 128 µg/mL	> 128 µg/mL	> 128 µg/mL	> 128 µg/mL	> 128 µg/mL	> 128 µg/mL	> 128 µg/mL	32 to 64 µg/mL (≈ 57 to 114 µM)	> 128 µg/mL	> 128 µg/mL	8 to 16 µg/mL (≈ 14.3 to 28.5 µM)	30 to 500 µM
